Assay results: patent publication US20170298100A1, “ANTI-VIRAL PEPTIDES” (Cascadia Life Sciences LLC, priority 2014, published 2017)
Where two headings read alike, the source gives them in different places.

How the values were obtained:
[1] = test system: influenza H3N2/Wisconsin/67/2005; assay: plaque assay of influenza H3N2 replication in MDCK cells; format: cell-based, influenza virus; details: 10 μM, control drug
[2] = test system: herpes simplex virus type 1 strain KOS; assay: plaque inhibition assay of HSV1 strain KOS replication in Vero cells; format: cell-based; details: for inhibition of plaque number: compared to media-only treated controls
MDCK canine kidney cells = details: for effect on monolayer: compared to cell control wells
[3] = test system: Vero African green monkey kidney cells

With `CCOC(=O)C1=C[C@@H](OC(CC)CC)[C@H](NC(C)=O)[C@@H](N)C1` [Oseltamivir] the “inhibition of H3N2 plaques” value [1] was “completely inhibitory”.

For `Nc1nc2c(ncn2COCCO)c(=O)[nH]1` [acyclovir, reference compound], the “plaque size relative to plaques with 56 μM CLS1N (approx. 0.7 mm)” value ([2]; 5 μM acyclovir control) was “approximately the same size”.

With “Ac-ADVDVSAVQAKLGALELNQRDAAAETELRV-NH2 [CLS2A]” the cytotoxicity (MDCK canine kidney cells; 59.4 μM (second concentration)) was “no cytotoxicity” and the effect on monolayer (MDCK canine kidney cells; 188 μM (highest concentration)) was “moderate thinning and more intense staining of the monolayer”.

In the case of “Ac-GDTVGLIDEQNEASKTNGLGAAEAF-NH2 [CLS2G]”, the cytotoxicity (MDCK canine kidney cells; 74.0 μM (second concentration)) is reported as “no cytotoxicity” and the effect on monolayer (MDCK canine kidney cells; 235 μM (highest concentration)) is reported as “moderate thinning and more intense staining of the monolayer”.

With “Ac-RQYSVTDALEDVSTSPQSTEEVVQSFLISQ-NH2 [CLS1S]” the “density of the monolayer” value ([3]; 188 ug/ml dilution) was “did not affect the density of the monolayer” and the effect on monolayer ([3]; highest concentration, compared to control untreated cells) was “moderate thinning”.

For “RQYSVTDALEDVNTSPQSTEEVVQSFLISQ (Artificial anti-viral peptides) [CLS1N]”, the plaque size ([2]; 5.6 μM (dilution 4)) was “wild type size”, the “inhibition of plaque number” value ([2]; 5.6 μM (dilution 4)) was “not significant inhibition of plaque number” and the plaque size ([2]; 17.6 μM (dilution 3)) was “wild type size”. For the same compound, the “inhibition of plaque number” value ([2]; 17.6 μM (dilution 3)) was “not significant inhibition of plaque number”, the “plaque size (diameter)” value ([2]; 56 μM, untreated plaques approx. 1.5 mm) was “approx. 0.7 mm” and the plaque number ([2]; 177 μM) was “reduced in number”. The “inhibition of virus growth in cells” value ([2]; plaque inhibition assay, Vero cells) was “effectively inhibited virus growth”, the monolayer appearance ([3]; 5.6 μM (dilution 4)) was “normal microscopically” and the monolayer appearance ([3]; 17.6 μM (dilution 3)) was “normal microscopically”. For the same compound, the “cytotoxicity grade (density of the monolayer)” value ([3]; 56 μM) was “no cytotoxicity” and the effect on monolayer ([3]; 177 μM, compared to cell control wells) was “moderate thinning and moderately less intense staining of the monolayer”.
